Assay results reported in the supplement of paper PMC10307832.

What was measured:
Experiment in all cases: relative viability (nuclei count vs DMSO), 5 days (fraction); higher = more cells survive
[1] = compound: C=CC(=O)Nc1cc(-n2c(=O)ccc3cnc4ccc(-c5ccc(NS(C)(=O)=O)cc5)cc4c32)ccc1C [BMX-IN-1] + O=C(CCCCCCC(=O)Nc1ccccc1)NO [Vorinostat] (partner 1 µM)
Method in brief: (§1)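 A single step with final 0.05% Triton X-100, 1% formaldehyde and 1 ug/ml Hoechst fixed the cells and stained nuclei 5 days after treatment. Lung cancer cell lines in 1536-well plates had been treated by pin tool the day after seeding with one drug alone or a fixed anchor-drug dose plus five library-drug doses (not always all listed) in √10 steps, and nuclei were counted on 4× images. Relative viability is the ratio of nuclei in treated wells to nuclei in vehicle wells, taken as the median of duplicate plates.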

[2] = compound: C=CCc1cccc(/C=N/NC(=O)CN2CCN(Cc3ccccc3)CC2)c1O [PAC-1] + C[C@]1(O)C[C@@H](c2nc(-c3ccc4ccc(-c5ccccc5)nc4c3)c3c(N)nccn32)C1 [Linsitinib] (partner 1 µM)
Method in brief: as §1

[3] = compound: C=CC(=O)N1CCC[C@@H](n2nc(-c3ccc(Oc4ccccc4)cc3)c3c(N)ncnc32)C1 [Ibrutinib] + CS(=O)(=O)CCNCc1ccc(-c2ccc3ncnc(Nc4ccc(OCc5cccc(F)c5)c(Cl)c4)c3c2)o1 [Lapatinib] (partner 2 µM)
Method in brief: as §1

[4] = compound: C=CCc1cccc(/C=N/NC(=O)CN2CCN(Cc3ccccc3)CC2)c1O [PAC-1] + Cc1nc(Nc2ncc(C(=O)Nc3c(C)cccc3Cl)s2)cc(N2CCN(CCO)CC2)n1 [Dasatinib] (partner 0.075 µM)
Method in brief: as §1

Cell Line	relative viability ([1]; first compound 0.02 µM)	relative viability ([1]; first compound 0.2 µM)	relative viability ([1]; first compound 0.6325 µM)	relative viability ([1]; first compound 2 µM)	relative viability ([2]; first compound 0.02 µM)	relative viability ([2]; first compound 0.06325 µM)	relative viability ([2]; first compound 0.2 µM)	relative viability ([2]; first compound 2 µM)	relative viability ([3]; first compound 0.01581 µM)	relative viability ([3]; first compound 0.1581 µM)	relative viability ([3]; first compound 0.5 µM)	relative viability ([4]; first compound 0.02 µM)	relative viability ([4]; first compound 0.06325 µM)	relative viability ([4]; first compound 0.2 µM)	relative viability ([4]; first compound 2 µM)	relative viability ([3]; first compound 0.05 µM)	relative viability ([3]; first compound 0.005 µM)
NCI-H650	0.475	0.52	0.48	0.438	0.887	0.912	0.761	0.676	0.867	1	0.883	0.426	0.455	0.406	0.45		
EPLC-272H	0.351	0.288	0.417	0.383		1.14	0.934	1.07	1.05	0.68	0.704	0.447	0.365	0.387	0.268	0.877	
LXF-289	0.824	0.876	0.912	0.882	0.972	0.992	0.946	0.909	0.903	0.88	0.923	0.228	0.226	0.192	0.223	0.932	0.918
LOU-NH91		0.939	1.05	0.915	0.925	0.964	0.906	0.915	0.786	0.737	0.694	0.505	0.551	0.541	0.599	0.774	0.638
NCI-H1944	0.519	0.659	0.598	0.578	1.17	1.05	1.12	1.06	0.818	0.7	0.844	0.209	0.222	0.204	0.216	0.771	0.818
NCI-H460	1.05		1.11	0.782	0.701	0.81	0.78	0.405	0.892	0.94	1.11	0.524	0.477	0.464	0.521	0.96	1.18
NCI-H358	0.816	0.811	0.788	0.652	0.657	0.786	0.709	0.506	0.466	0.406	0.43	0.179	0.164	0.158	0.135	0.475	0.403
NCI-H596	0.685	0.84	0.67	0.666	0.891	0.977	1.08	1.03	1.1	0.988	1.08	0.571	0.659	0.573	0.664	1.02	1.86
NCI-H322M	0.872	0.983	1.01	0.876	0.907	0.889	0.817	0.928	0.652	0.512	0.585	0.226	0.264	0.259	0.256	0.621	0.527
H3255	0.787	0.812	0.902	0.76	1.05	0.952	0.862	0.913	0.28	0.182	0.218	0.361	0.288	0.284	0.33	0.248	0.26
COR-L23	0.448	0.524	0.635	0.421	0.945	0.937	0.861	1.03	0.948	0.964	0.982	0.472	0.48	0.453	0.506		1.24
NCI-H2126	0.829	0.697	0.864	0.786	0.696	0.703	0.692	0.694	0.726	0.741	0.706	0.615	0.584	0.642	0.615	0.756	
NCI-H1993	0.767	0.9	0.85	0.898	0.735	0.797	0.745	0.701	0.576		0.764	0.65	0.611	0.421	0.483	0.856	0.766
NCI-H1915	0.576	0.531	0.564	0.53	1.09	1.09	1.02	1.07	0.987	1.06	1.06	0.313	0.336	0.317	0.29	1.01	
NCI-H727	1.11	1.3	1.29	1.2	0.281	0.283	0.272	0.317	0.735	0.496	0.852	0.334	0.338	0.368	0.358	1.2	0.734
NCI-H1734	0.81	0.927	0.866	0.902	0.845	0.885	0.928	1.02	1.01	1.19	1.04	0.361	0.521	0.397	0.51	1.14	0.843
A-427	0.841	0.897	0.931	0.856	1.14	1.14	1.15	1.08	1.01	0.982	1.01	0.77	0.665	0.666	0.697	1.06	1.01
NCI-H1437	0.964	0.866	0.896	0.949	0.986	1.02	0.911	0.71	0.677	0.604	0.893	0.298	0.425	0.459	0.278	0.775	0.799
PC-3 [JPC-3]	0.953	0.831	0.916	0.766	1.04	0.965	0.948	0.97	0.45	0.413	0.444	1.06	0.986	0.981	0.975	0.439	0.389
